Experimental findings from patent publication US20100234372A1, “SUBSTITUTED 2-MERCAPTOQUINOLINE-3-CARBOXAMIDES AS KCNQ2/3 MODULATORS” (GRUNENTHAL GMBH, priority 2009, published 2010) are described below.

The EC50 is the concentration at which the effect is half-maximal. Higher therefore signals weaker potency. One may read the ED50 as the dose at which the effect has come halfway, by size or by number of responders.

One assay addresses T1, KCNQ2/3 channels (Homo sapiens, UniProt O43525+O43526).
T1 construct: expressed in transfected cells; host or cells: CHO-K1 cells
The assay can be described thus: Fluorescence assay using a voltage-sensitive dye (fluorimetry). It is filed as cell-based. The following applies: for EC50: CHO-K1 cells expressing KCNQ2/3 channels; for Emax at 1 µM: 50 μM retigabine = 100%, CHO-K1 cells expressing KCNQ2/3, read-out: Fluorimetry % efficacy at 1 μM (50 μM retigabine = 100%). The essentials: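 CHO-K1 cells expressing human KCNQ2/3 were loaded with membrane-potential dye in ES buffer (pH 7.4) for 45 min, then incubated with compound for 30 min at room temperature. Fluorescence (525/560 nm) before (F1) and at peak after KCl (92 mM final) (F2) yielded agonist activity versus buffer controls; EC50 calculated.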

A further assay relates to Male Sprague-Dawley rats. The assay can be described thus: Low-intensity tail flick in rats. The following applies: po, rat. It is filed as in vivo. From the text: The antinociceptive activity of the test substance against an acute noxic thermal stimulant was examined in the tail-flick test in rats using the method described by D′Amour and Smith (J. Pharm. Exp. Ther. 72, 74 79 (1941)). Male Sprague-Dawley rats weighing between 200 and 250 g were used (breeder: Janvier, Le Genest St. Isle, France). The animals were placed in special test compartments and the base of the tail was exposed to a focused light beam from an analgesia meter (model 2011, Rhema Labortechnik, Hofheim, Germany). 10 animals were used per group. Before administering a substance according to the invention, the tail-flick latency (time from switching on the light beam to the flick of the tail) was measured twice at an interval of five minutes and the average was defined as the control latency time. The intensity of the light beam was chosen so that the control latency time was 7 to 9 seconds.
The measurement of the tail-flick latency was then repeated 10, 20, 30 and 60 minutes after peroral administration of the substance. The antinociceptive action of the test substance was determined as the increase in the tail-flick latency time using the following formula:
where T0=control latency time before administration of the substance, T1=latency time after administration of the substance, T2=maximum exposure time to the light beam (30 seconds), MPE=maximum possible effect.
Analysis of variance (repeated measures ANOVA) was used to test for statistically significant differences between the substance and vehicle group. The significance level was set at ≦0.05.

[1] abbreviates: p.o., MPE, read-out: Low-intensity tail flick rat p.o. % effect (dose [mg/kg]).

As for `CCSc1nc2cc(C(F)(F)F)ccc2c(C)c1C(=O)NCc1cccnc1` [compound 42], on KCNQ2/3 channels, the EC50 turned out to be 1690 nM and the Emax at 1 µM was 175%. Besides, the inhibition in vivo at 21.5 mg/kg in the assay on Male Sprague-Dawley rats (setting [1]) stood at 51%.
Take `Cc1c(C(=O)NCc2cccs2)c(SC(C)(C)C)nc2cc(C(F)(F)F)ccc12` [compound 89]: on KCNQ2/3 channels, the EC50 came to 64 nM and the Emax at 1 µM is 220%. Moreover, the ED50 in the assay on Male Sprague-Dawley rats is 2.7 mg/kg.
For `CCSc1nc2cc(F)c(F)cc2c(C)c1C(=O)NCc1ccc(F)cc1` [compound 109], on KCNQ2/3 channels, the EC50 came to 187 nM and the Emax at 1 µM was found to be 144%. For the same molecule, in the assay with Male Sprague-Dawley rats (setting [1]), the inhibition in vivo at 10 mg/kg stood at 7%.
Consider `CCSc1nc2cc(C(F)(F)F)ccc2cc1C(=O)NCc1cccs1` [compound 14], for which, on KCNQ2/3 channels, the EC50 amounted to 291 nM and the Emax at 1 µM was found to be 223%. The inhibition in vivo at 21.5 mg/kg in the assay on Male Sprague-Dawley rats (setting [1]) turned out to be 9%.
For the molecule `Cc1c(C(=O)NCc2ccc(F)cc2)c(SC(C)(C)C)nc2cc(C(F)(F)F)ccc12` [compound 94], at KCNQ2/3 channels, it took 54 nM to reach a half-maximal effect (EC50) and the Emax at 1 µM was 162%. Moreover, the inhibition in vivo at 4.64 mg/kg with Male Sprague-Dawley rats (p.o., dose 4.64 mg/kg, MPE, read-out: Low-intensity tail flick rat p.o. % effect (dose [mg/kg])) amounted to 71%.
For the molecule `CCSc1nc2cc(C(F)(F)F)ccc2c(C)c1C(=O)NCc1ccc(F)cc1` [compound 77], on KCNQ2/3 channels, the EC50 amounted to 105 nM and the Emax at 1 µM amounted to 137%. In addition, the inhibition in vivo at 10 mg/kg in the assay on Male Sprague-Dawley rats (setting [1]) stood at 37%.
